Measurements: US6849619B2, “Substituted pyridoindoles as serotonin agonists and antagonists” (Bristol-Myers Squibb Company, priority 2000, dated 2005)

Question: Which melting point does the source give for COc1ncc(C)cc1Nc1cc2c3c(c1)[C@@H]1CNCC[C@@H]1N3CCOC2 [Example 172, (7bR,11aS)-N-(2-Methoxy-5-methyl-3-pyridinyl)-1,2,7b,8,9,10,11,11a-octahydro-4H-[1,4]oxazepino[6,5,4-hi]pyrido[4,3-b]indole-6-amine] here?
Answer: The melting point was 122 to 124 °C.

Question: For CCOc1ncc(C)cc1Nc1cc2c3c(c1)[C@@H]1CNCC[C@@H]1N3CCOC2 [Example 173, (7bR,11aS)-N-(2-Ethoxy-5-methyl-3-pyridinyl)-1,2,7b,8,9,10,11,11a-octahydro-4H-[1,4]oxazepino[6,5,4-hi]pyrido[4,3b]indole-6-amine], which melting point is on record?
Answer: Its melting point is 59 to 68 °C.
